Test [1] concerns S. aureus Smith. The test is described as follows: In vitro antibacterial activity (minimal inhibitory concentration, agar dilution). Type of test: cell-based. The following applies: Staphylococcus aureus. As to the method:
(§1) The compounds have shown activity in vitro against one or more of the following strains of bacteria: S. aureus Smith, S. aureus 53-180, N. catarrhalis 8193, E. coli 9637, S. paratyphi 11737, K. pneumoniae 10031, or P. vulgaris 6896.
(§2) A stock solution or suspension of the test compound at a concentration of 2500 μg/ml. is prepared utilizing a suitable solvent or medium such as aqueous sodium hydroxide, aqueous lactic acid, methyl cellosolve, dimethylsulfoxide, dimethylacetamide, ethylene glycol, dimethylformamide, formamide, propylene glycol, acetone or methanol. Two-fold dilutions are made by adding appropriate amounts of sterile water to the solution or suspension of the test substance. One ml. quantities of each dilution are incorporated into Wellcotest Sensitivity Test Agar fortified with 5% hemolyzed horse blood (9 ml. vol.) in sterile Petri dishes to give plates containing varying concentrations of the test compound. The hardened surfaces of each plate are incubated with the test organism, and the plates are incubated for 18 hours at 35° C.
Background: In agar dilution the substance is mixed into plates at graded concentrations.

Test [2] has as its system E. coli 9637. The description is as above. Type of test: cell-based. The method, then:
as §1, §2

Test [3] relates to S. paratyphi 11737. The test is described as above. Type of test: cell-based. The following applies: Salmonella enterica, Wellcotest Sensitivity Test Agar with 5% hemolyzed horse blood, 18 hours at 35° C. As to the method: as §1, §2
For test [4], the system named is K. pneumoniae 10031. The test is described as above. Type of test: cell-based. As to the method: as §1, §2
Test [5] has as its system N. catarrhalis 8193. The test is described as above. Type of test: cell-based. To be noted: Wellcotest Sensitivity Test Agar with 5% hemolyzed horse blood, 18 hours at 35° C. The method, then: as §1, §2
In test [6] the test system is S. aureus 53-180. The description is as above. Type of test: cell-based. The method, then: as §1, §2
Test [7] concerns P. vulgaris 6896. Described as above. Type of test: cell-based. The method, then: as §1, §2
Test [8] relates to bacterial infections. Kind of test: Potentiation of sulfa drug against bacterial infections in mice, oral. Type of test: in vivo, mouse. The following applies: oral route of administration in mice. As to the method:
The invention also provides compounds which will potentiate the antibacterial effects of sulfa drugs.
(§3) The test agent is weighed, suspended in 0.5% aqueous carboxymethyl cellulose, hemogenized (glass tissue grinder) and diluted according to the design of the experiment. Mice (male, 18±1 g., CD-1 strain) are pre-weighed, pooled, infected at random intraperitoneally with a 0.5 ml. standardized suspension (LD95 ±5%) of the bacterial organism in 5% gastric mucin and treated at random with single doses of the test agents either at the time of infection or six hours after infecting. The treated groups consist of ten mice per dosage level. Deaths are recorded daily for 14 days and the PD50 (mice are treated at time of infection) and CD50 (mice are treated six hours after infecting) values are calculated by the method of Reed and Muench [Amer. J. Hyg., 27, (1938)].

Test [9] has as its system Staphylococcus aureus CHP. Kind of test: In vivo antibacterial synergism with sulfomethoxazole (mouse protection test). To be noted: CD-1 mice; for ED50: po, single dose, alone, treated immediately after infecting, read-out: PD50. The method, then:
as §3

The subject of test [10] is Escherichia coli (E-3). The test is described as above. To be noted: E. coli (E-3), CD-1 mice; for ED50: Escherichia coli, po, single dose, alone, treated immediately after infecting, read-out: PD50. The method, then: as §3
For test [11], the system named is Escherichia coli (E-2). The test is described as above. To be noted: E. coli (E-2), CD-1 mice; for ED50: Escherichia coli, po, single dose, alone, treated immediately after infecting, read-out: PD50. The method, then:
as §3

[12] abbreviates: Escherichia coli, E. coli 9637, Wellcotest Sensitivity Test Agar with 5% hemolyzed horse blood, 18 hours at 35° C., read-out: MIC.
The mark [13] stands for this setting: Klebsiella pneumoniae, 10031, 18 h.
[14] abbreviates: Staphylococcus aureus, 53180, 18 h.
The mark [15] stands for this setting: S. aureus Smith, Wellcotest Sensitivity Test Agar with 5% hemolyzed horse blood, 18 hours at 35° C., read-out: MIC.
[16] abbreviates: Klebsiella pneumoniae, K. pneumoniae 10031, Wellcotest Sensitivity Test Agar with 5% hemolyzed horse blood, 18 hours at 35° C., read-out: MIC.
[17] abbreviates: Staphylococcus aureus, 53180, S. aureus 53-180, Wellcotest Sensitivity Test Agar with 5% hemolyzed horse blood, 18 hours at 35° C., read-out: MIC.
Setting [18] is: Proteus vulgaris, P. vulgaris 6896, Wellcotest Sensitivity Test Agar with 5% hemolyzed horse blood, 18 hours at 35° C., read-out: MIC.
Where [19] appears, read: p.o., Cpd. dose in combination with SM.
[20] abbreviates: p.o., SM dose in combination with Cpd.

Each structure is given as a SMILES string. ≈ marks a conversion by molar mass, not a printed value. Like-named read-outs stand apart in the source and are kept apart here. Some results are limits rather than exact numbers.

As for `Nc1nc(N)c2c(ccc3c2ccn3Cc2ccc(Cl)cc2Cl)n1` [Example 2, 7-[(2,4-Dichlorophenyl)methyl]-7H-pyrrolo[3,2-f]quinazoline-1,3-diamine], the MIC in test [1] (18 h) is 0.976 µg/mL (≈ 2.72 µM); in test [2] (setting [12]), 3.9 µg/mL (≈ 10.9 µM); in [3], 31.3 µg/mL (≈ 87.4 µM); in test [4] (setting [13]) it was 0.488 µg/mL (≈ 1.36 µM); in test [5], 0.0038 µg/mL (≈ 0.0106 µM); in [6] (setting [14]) it was 0.488 µg/mL (≈ 1.36 µM).
As to `CC(=O)c1cccc(Cn2ccc3c4c(N)nc(N)nc4ccc32)c1` [Example 3], the MIC worked out at 0.122 µg/mL (≈ 0.368 µM) in test [1] (setting [15]); 0.244 µg/mL (≈ 0.736 µM) in [2] (setting [12]); 0.976 µg/mL (≈ 2.95 µM) in test [3]; 0.031 µg/mL (≈ 0.0935 µM) in test [4] (setting [16]); 0.061 µg/mL (≈ 0.184 µM) in test [6] (setting [17]); 3.9 µg/mL (≈ 11.8 µM) in test [7] (setting [18]).
For the compound `COC(=O)c1cccc(Cn2ccc3c4c(N)nc(N)nc4ccc32)c1` [Example 4], the MIC in test [1] (18 h) is 0.976 µg/mL (≈ 2.81 µM); in test [2] (setting [12]) it was 1.95 µg/mL (≈ 5.61 µM); in test [3], 31.3 µg/mL (≈ 90.1 µM); in test [4] (setting [16]), 0.244 µg/mL (≈ 0.702 µM); in test [6] (setting [17]), 0.122 µg/mL (≈ 0.351 µM); in test [7] (setting [18]) it was 125 µg/mL (≈ 360 µM).
With `CC(C)OC(=O)c1ccc(Cn2ccc3c4c(N)nc(N)nc4ccc32)cc1` [Example 6], the MIC was 0.488 µg/mL (≈ 1.3 µM) in test [1] (18 h); 15.6 µg/mL (≈ 41.6 µM) in [2] (setting [12]); 62.5 µg/mL (≈ 166 µM) in test [3]; 0.488 µg/mL (≈ 1.3 µM) in test [4] (setting [13]); 0.122 µg/mL (≈ 0.325 µM) in [5]; 0.488 µg/mL (≈ 1.3 µM) in test [6] (setting [14]). Further, in test [7] (setting [18]), the MIC stood at 125 µg/mL (≈ 333 µM).
On to `CCCC(C)OC(=O)c1ccc(Cn2ccc3c4c(N)nc(N)nc4ccc32)cc1` (stereo not drawn) [Example 7], for which the MIC turned out to be 15.6 µg/mL (≈ 38.7 µM) in [1] (setting [15]), 15.6 µg/mL (≈ 38.7 µM) in test [4] (setting [16]), 7.81 µg/mL (≈ 19.4 µM) in test [5] and 7.81 µg/mL (≈ 19.4 µM) in test [6] (setting [17]).
For `COC(=O)c1ccc(Cn2ccc3c4c(N)nc(N)nc4ccc32)cc1` [Example 8], the MIC in test [1] (18 h) is 31.3 µg/mL (≈ 90.1 µM); in [2] (Escherichia coli, 9637, 18 h) it was 62.5 µg/mL (≈ 180 µM); in [3], 250 µg/mL (≈ 720 µM); in [4] (setting [16]), 15.6 µg/mL (≈ 44.9 µM); in [6] (setting [14]), 7.81 µg/mL (≈ 22.5 µM); in test [7] (Proteus vulgaris, 6896, 18 h), 250 µg/mL (≈ 720 µM).
As to `Nc1nc(N)c2c(ccc3c2ccn3Cc2ccc(O)cc2)n1` [Example 9, 7-[(4-Hydroxyphenyl)methyl]-7H-pyrrolo[3,2-f]quinazoline-1,3-diamine], the MIC in test [1] (18 h) stood at 0.488 µg/mL (≈ 1.6 µM); in [2] (Escherichia coli, 9637, 18 h) it was 0.976 µg/mL (≈ 3.2 µM); in test [3] it was 3.9 µg/mL (≈ 12.8 µM); in test [4] (setting [16]), 0.244 µg/mL (≈ 0.799 µM); in test [6] (setting [14]) it was 0.488 µg/mL (≈ 1.6 µM); in test [7] (Proteus vulgaris, 6896, 18 h) it was 250 µg/mL (≈ 819 µM).
For the compound `Nc1nc(N)c2c(ccc3c2ccn3-c2ccncc2)n1` [Example 10, 7-(4-Pyridinyl)-7H-pyrrolo-[3,2-f]quinazoline-1,3-diamine], the MIC in test [1] (setting [15]) is 0.448 µg/mL (≈ 1.62 µM); in [2] (setting [12]) it was 0.244 µg/mL (≈ 0.883 µM); in [3], 0.976 µg/mL (≈ 3.53 µM); in test [4] (setting [13]), 0.976 µg/mL (≈ 3.53 µM); in test [5], 0.0152 µg/mL (≈ 0.055 µM); in test [6] (setting [17]), 0.224 µg/mL (≈ 0.811 µM). In test [7] (Proteus vulgaris, 6896, 18 h), this compound gave an MIC of 62.5 µg/mL (≈ 226 µM). In addition, in [8], the “synergistic effect with sulfamethoxazole against bacterial infections” value was “gave a synergistic effect with sulfamethoxazole against bacterial infections”. Further, the “PD50 of Cpd. in combination SM/Cpd.” value came to 7.28 mg. per kg in test [9] (setting [19]), 6.25 mg. per kg in test [10] (setting [19]) and 1.20 mg. per kg in [11] (setting [19]). In addition, the ED50 in test [9] was over 400 mg/kg; in test [10], 313 mg/kg; in [11], over 400 mg/kg.
Turning to `Cc1ccnc(-n2ccc3c4c(N)nc(N)nc4ccc32)c1` [Example 11], the MIC in test [1] (18 h) came to 3.9 µg/mL (≈ 13.4 µM); in test [2] (setting [12]) it was 3.9 µg/mL (≈ 13.4 µM); in test [3], 7.81 µg/mL (≈ 26.9 µM); in test [4] (setting [16]) it was 0.244 µg/mL (≈ 0.84 µM); in [5] it was 0.0152 µg/mL (≈ 0.0524 µM); in [6] (setting [14]), 0.976 µg/mL (≈ 3.36 µM). For the same compound, in [7] (setting [18]), the minimum inhibitory concentration (MIC) was found to be 15.6 µg/mL (≈ 53.7 µM).
As for `Nc1nc(N)c2c(ccc3c2ccn3-c2ccc(C(F)(F)F)cc2)n1` [Example 12], the MIC in [1] (18 h) came out at 31.3 µg/mL (≈ 91.2 µM); in test [2] (Escherichia coli, 9637, 18 h), 250 µg/mL (≈ 728 µM); in test [4] (setting [16]) it was 3.9 µg/mL (≈ 11.4 µM); in [6] (setting [14]), 31.3 µg/mL (≈ 91.2 µM).
For the compound `NC(=O)c1ccc(-n2ccc3c4c(N)nc(N)nc4ccc32)cc1` [Example 13], the results for the MIC in test [1] (setting [15]), in [4] (setting [16]) and in [6] (setting [14]) were 1.95 µg/mL (≈ 6.13 µM), 0.976 µg/mL (≈ 3.07 µM) and 7.81 µg/mL (≈ 24.5 µM), respectively.
Consider `Cc1cc(NS(=O)(=O)c2ccc(N)cc2)no1` [SM, sulfomethoxazole, reference compound], for which the “PD50 of SM in combination SM/Cpd.” value in [9] (setting [20]) is 50 mg. per kg; in test [10] (setting [20]) it was 12.5 mg. per kg; in test [11] (setting [20]), 5.25 mg. per kg. Moreover, the values for the ED50 in [9], in test [10] and in test [11] were 259 mg/kg, 28.1 mg/kg and 25 mg/kg, respectively.

By MIC is commonly meant the lowest concentration that inhibits growth of the organism.

The values above are taken from patent publication US4208520A, “7-(Substituted)-7H-pyrrolo[3,2-f]quinazoline-1,3-diamines” (American Home Products Corporation, priority 1978, dated 1980).
